Consider five molecules from patent US20050233942A1, “Oxygenated dibenzo-alpha-pyrone chromoproteins” (priority 2004, published 2005).

Experiment [1] deals with Fe-ADP-ascorbate induced lipid peroxidation (LPO) in rat brain. The experiment can be described thus: Inhibition of Fe-ADP-ascorbate induced lipid peroxidation (LPO) in rat brain homogenate. The experiment is classed as biochemical, Albino rats (Sprague Dawley strain). Particulars: 37° C., 30 minutes. As to the method: Inhibition of Fe-ADP-ascorbate induced lipid peroxidation (LPO) in rat brain by DBP and DCPs
Albino rats (Sprague Dawley strain) were sacrificed by cervical dislocation and decapitation. Brains were dissected out and 10% w/v homogenate was prepared in 0.15 M KCl. The brain homogenate was centrifuged at 1500 rpm for 10 minutes and the supernatant was used for the study. The incubation mixture contained in a final volume of 1 ml., brain homogenate (500 μl), distilled water (100 μl) or test compounds dissolved in solvents at different concentrations (10 to 100 μg/ml of the final volume). Peroxidation was initiated by adding FeCl3 (100 μM), ADP (1 mM) and ascorbate (100 μM) to give the final concentration stated. After incubating at 37° C. for 30 minutes, the reaction was stopped by adding acetic acid buffer (1.5 ml, pH 3.5) and thiobarbituric acid solution (1.5 ml, pH 7.4) to 1 ml of LPO mixture. The reaction mixture was heated at 85° C. for 30 minutes, cooled, centrifuged (2000 rpm for 10 minutes) and the absorbance of the supernatant was measured at 532 nm. IC50 values were calculated in the usual way by plotting the concentration of the test compounds versus percent inhibition of LPO.

Experiment [2] concerns chronic stress (CS) induced gastric ulceration. Briefly: Chronic stress (CS) induced gastric ulceration in albino rats. It counts as in vivo, CF strain albino rats. Particulars: 14 days. As to the method: A comparative study of shilajit bioactive constituents from EPA, DHA, DBPs and DCPs, was carried out to determine their adaptogenic potency against chronic stress (CS) in albino rats. It is now increasingly becoming evident that CS of a mild but unpredictable nature which the animal is unable to cope with (inescapable stress), is clinically more relevant than acute stress even when the latter is severe in nature. It is believed that chronic, unpredictable, and inescapable stress resembles the situation faced by an individual that ultimately results in chronic stress-induced physiological perturbation and disease. Animals The investigation was carried out on CF strain albino rats, of either sex (140-180 g), housed in colony cages at an ambient temperature of 25±2° C., with a 12 h. light/12 h. dark cycle. […] The procedure of Armario et al (1993) was followed. Briefly, rats were randomly assigned to control or stress groups. Those assigned to the stress groups were subjected to 1 h foot shock, through a grid floor, every day for 14 days. The duration of each shock (2 mA) and the intervals between the shocks were randomly programmed between 3-5 sec. and 10-110 sec., respectively, to make the stress unpredictable. The shock chamber had high walls which made escape from shock impossible. EPA (Aldrich, Milw.), DHA (Sigma), DBPs and DCPs were separately suspended/dissolved in 0.3% carboxymethylcellulose(CMC) in distilled water and administered orally (p.o.), for 14 days, starting on day 1, 60 min prior to electroshock. Control animals received only the vehicle in either unstressed or the stressed rats for the same period in a volume of 2.5 ml/kg, p.o. Estimations were conducted on day 14, one hour after the last stress procedure and two hours after the last test compound or vehicle was administered. Gastric ulcerations (Bhattacharya et al., 1987). On day 14, rats were killed by decapitation the stomach was split open along the greater curvature and the numbers of discrete ulcers were noted. […] Thereafter, the pooled ulcer score was calculated according to the method of Bhattacharya et al. (1987).

The subject of experiment [3] is adrenal gland ascorbic acid and corticosterone concentrations and plasma corticosterone level. The experiment can be described thus: CS induced alteration of adrenal gland ascorbic acid and corticosterone and plasma corticosterone (adrenocorticoid activity). To be noted: 5 mg/kg p.o. + CS. It counts as in vivo, CF strain albino rats. As for the experimental part: Animals The investigation was carried out on CF strain albino rats, of either sex (140-180 g), housed in colony cages at an ambient temperature of 25±2° C., with a 12 h. light/12 h. dark cycle. Experiments were conducted between 0900 and 1400 hrs. • EPA, Eicosapentaenoic acid • DHA, Docosahexaenoic acid • DBPs, 1:1 mixture of 3-hydroxy- and 3,8-dihydroxydibenzo-alpha-pyrone • DCPs, DBP-chromoproteins
The procedure of Armario et al (1993) was followed. Briefly, rats were randomly assigned to control or stress groups. Those assigned to the stress groups were subjected to 1 h foot shock, through a grid floor, every day for 14 days. The duration of each shock (2 mA) and the intervals between the shocks were randomly programmed between 3-5 sec. and 10-110 sec., respectively, to make the stress unpredictable. The shock chamber had high walls which made escape from shock impossible.
EPA (Aldrich, Milw.), DHA (Sigma), DBPs and DCPs were separately suspended/dissolved in 0.3% carboxymethylcellulose(CMC) in distilled water and administered orally (p.o.), for 14 days, starting on day 1, 60 min prior to electroshock. […]
Adrenal gland ascorbic acid (Zenker and Bernstein, 1958) and corticosterone concentrations (Selye, 1936), and plasma corticosterone levels (Selye, 1936) were determined to substantiate the validity and intensity of the stress procedure adopted.

≈ marks a conversion by molar mass, not a printed value.

For the molecule `O=c1oc2cc(O)ccc2c2ccc(O)cc12` [3,8-Dihydroxydibenzo-alpha-pyrone], in experiment [1], the “IC50 (LPO)” value is 30 µg/mL (≈ 131 µM).

`O=C1O[C@H]([C@@H](O)CO)C(O)=C1O` [Ascorbic acid]: the “IC50 (LPO)” value in experiment [1] came out at 70 µg/mL (≈ 397 µM).

Consider `CC/C=C\C/C=C\C/C=C\C/C=C\C/C=C\C/C=C\CCC(=O)O` [DHA, Docosahexaenoic acid], for which the Ulcer incidence % in experiment [2] (5 mg/kg p.o.) was determined as 70%; in experiment [2] (10 mg/kg p.o.), 60%.

For `CC/C=C\C/C=C\C/C=C\C/C=C\C/C=C\CCCC(=O)O` [EPA, Eicosapentaenoic acid], in experiment [3], the Adrenal corticosterone turned out to be 2.3 ± 0.8 μg/100 mg. The Plasma corticosterone in experiment [3] stood at 22.1 ± 2.9 µg/dL. For the same molecule, the Ulcer incidence % in experiment [2] (5 mg/kg p.o.) is reported as 70%; in experiment [2] (10 mg/kg p.o.), 60%.

As to `CC(=O)Oc1c(C)c(C)c2c(c1C)CCC(C)(CCC[C@H](C)CCC[C@H](C)CCCC(C)C)O2` (stereo partly drawn) [Vitamin E acetate], the “IC50 (LPO)” value in experiment [1] came to 56 µg/mL.
